Structures can show the parent of a compound that is named as a salt. One block for each compound: values may come before it.
Legend:
[1] = in vivo; cited from earlier work
[2] = rats; cited from earlier work
[3] = tested on: C6 gliomas; conditions: rat C6 glioma, cited from earlier work
[4] = tested on: HIF-1α; assay: RT-PCR gene-fold changes in human GBM cells; format: cell-based
Method: (§1) Quantification of mRNA by real-time quantitative RT-PCR for HIF-1a, MPG and MGMT. Total RNA from all cell lines with all treatments was purified with an RNeasy Mini Kit (Qiagen), and quantified by spectrophotometry (Nanodrop). cDNA was synthesized using SuperScript IV Reverse Transcriptase Kit (Invitrogen).
(§2) Target gene mRNA was amplified and measured by Bio-Rad CFX96™ Real Time System. Gene expression was determined using the SYBR Select Master Mix (Applied Biosystems). […] The reaction is characterized by the point during cycling when amplification of PCR products is first detected, rather than the amount of PCR product accumulated after a fixed number of cycles. The higher the starting quantity of the template, the earlier a significant increase in fluorescence is observed. The threshold cycle is defined as the fractional cycle number at which fluorescence passes a fixed threshold above the baseline. Fluorescence data were converted into cycle threshold measurements exported to Microsoft Excel. Glyceraldehyde-3-phosphatase dehydrogenase (GAPDH) mRNA expression levels were used as the quantitative internal control. For precise quantification, the mRNA expression level of each sample was normalized using the expression of the GAPDH gene.
(§3) All primers were synthesized by Integrated DNA Technologies. The primers used were: […]

[5] = tested on: LN229 cells; assay: IC50 TMZ sensitivity (50% growth inhibition, cell counts); format: cell-based, human; conditions: TMZ alone
Method: (§4) Culture Collection (ATCC; Manassas, VA, USA) (U-138—ATCC (CRL-HTB-16) glioblastoma; LN-18—ATCC (CRL-2610) glioblastoma; LN-229—ATCC (CRL-2611) glioblastoma; and T-98G—ATCC—(CRL-1690). U-251 GBM cells were obtained from Sigma-Aldrich (N#09063001 also known before as U-373 MG (ATCC® HTB-17)). G55 cells were obtained from Dr. Michael Sughrue, who was a resident at Univ. of California San Francisco (originally obtained from C. David James (Department of Neurological Surgery, UCSF, CA, USA), who characterized the cells).
(§5) Cells were cultured in Dulbecco's modified Eagle's medium (DMEM, Gibco BRL, Crand Island, N.Y., USA) supplemented with 10% fetal bovine serum (Gibco) in a standard humidified incubator at 37° C. under 5% CO2.
(§6) IC50 concentrations—Protocol for TMZ sensitivity determination. […] Briefly, cells were plated at 1×10^4 cells per well in 24-well, flat-bottomed plates and incubated with medium for 24 hrs. The cells were subsequently washed twice with medium and incubated further with fresh medium (control) or medium containing 0.1-1,000 μM of TMZ. Per each plate contained growth medium with +/−TMZ there was a plate with medium containing 1 mM OKN. After exposure to the various concentrations of TMZ for 72 hrs, cells were detached by trypsinization and the numbers counted. The experiments were repeated at least 4 times at each concentration.

[6] = tested on: T98 cells; assay: as above; format: cell-based, human; conditions: TMZ alone
Method: as §4, §5, §6

[7] = tested on: LN18 cells; assay: as above; format: cell-based; conditions: Homo sapiens, LN-18, TMZ alone, 72 hrs
Method: as §4, §5, §6

[8] = tested on: G55 cells; assay: as above; format: cell-based; conditions: Homo sapiens, 72 h, TMZ alone
Method: as §4, §5, §6

[9] = tested on: U138 cells; assay: as above; format: cell-based; conditions: Homo sapiens, TMZ alone, 72 hrs
Method: as §4, §5, §6

[10] = tested on: U251 cells; assay: as above; format: cell-based; conditions: Homo sapiens, U-251, TMZ alone, 72 hrs
Method: as §4, §5, §6

[11] = tested on: MGMT; assay: RT-PCR gene-fold changes in human GBM cells; format: cell-based
Method: as §1, §2, §3
(§7) were used to amplify 603-bp transcripts of MPG [9].

[12] = tested on: MPG; assay: RT-PCR gene-fold changes in human GBM cells; format: cell-based
Method: as §1, §2, §3, §7

[13] = tested on: HIF-1α; assay: ELISA protein level in human GBM cell lysates; format: cell-based
Method: (§8) ELISA for HIF-1a, MPG and MGMT. Protein expressions were assessed in all six glioma cell lines for all four groups of treatment (cell alone, cells with TMZ, cells with OKN, cells with combined OKN and TMZ). Cells were lysed before assaying. In brief, cells were washed by cold PBS gently, and then detached with trypsin, and collected by centrifugation at 1,000×g for 5 minutes. Then, cells were washed three times in cold PBS, then suspended in fresh lysis buffer. Lysates were centrifuged at 1,500×g for 10 minutes at 2-8° C. to remove cellular debris.
(§9) The assay is based on the sandwich ELISA principle. Each well of the supplied microtiter plate has been pre-coated with a target specific capture antibody. Standards or samples are added to the wells and the target antigen binds to the capture antibody. Unbound Standard or sample is washed away. A biotin-conjugated detection antibody is then added which binds to the captured antigen. Unbound detection antibody is washed away. An Avidin-Horseradish Peroxidase (HRP) conjugate is then added which binds to the biotin. Unbound Avidin-HRP conjugate is washed away. A TMB substrate is then added which reacts with the HRP enzyme resulting in color development. A sulfuric acid stop solution is added to terminate color development reaction and then the optical density (OD) of the well is measured at a wavelength of 450 nm±2 nm. The OD of an unknown sample can then be compared to an OD standard curve generated using known antigen concentrations in order to determine its antigen concentration.
(§10) The antigen concentration determined from ELISA was then normalized to the total protein concentration of each cell lysate in order to have comparison between groups. ELISA Kits for N-Methylpurine DNA Glycosylase (MPG) and for Hypoxia Inducible Factor 1 Alpha (HIF1a) were purchased from CLOUD-CLONE CORP.(CCC) and for Human MGMT from LifeSpan Biosciences, Inc.

[14] = tested on: MGMT; assay: ELISA protein level in human GBM cell lysates; format: cell-based
Method: as §8, §9, §10

[15] = tested on: MPG; assay: ELISA protein level in human GBM cell lysates; format: cell-based
Method: as §8, §9, §10

[16] = patients; cited from earlier work
[17] = T98 cells (TMZ-resistant), UT 1.00
[18] = U251 cells (TMZ-sensitive), UT 1.00

Compound: O=NN(CCCl)C(=O)NC1CCCCC1 [Lomustine, 1-(2-chloroethyl)-3-cyclohexyl-1-nitrosourea]
- crossing of the blood brain barrier [1]: crosses the blood brain barrier

Compound: CC(C)(C)[N+]([O-])=Cc1ccccc1 [PBN, phenyl N-tert-butyl nitrone]
- half-life [2]: about 132 minutes
- tumors with reduced tumor growth ([3]; post-treatment): ~50%
- tumors with reduced growth ([3]; pre-treatment): > 80%
- crossing of the blood brain barrier [1]: easily penetrate the BBB

- IC50 [10]: 176 µM
Compound: Cn1nnc2c(C(N)=O)ncn2c1=O [TMZ, Temozolomide, reference compound]
- RT-PCR gene-fold change HIF-1α ([4]; G55 cells (TMZ-resistant), UT 1.00): 1.85 fold
- RT-PCR gene-fold change HIF-1α ([4]; LN18 cells (TMZ-resistant), UT 1.03): 2.11 fold
- RT-PCR gene-fold change HIF-1α ([4]; LN229 cells (TMZ-sensitive), UT 1.00): 1.41 fold
- RT-PCR gene-fold change HIF-1α [4, 17]: 1.72 fold
- RT-PCR gene-fold change HIF-1α ([4]; U138 cells (TMZ-resistant), UT 1.00): 2.05 fold
- RT-PCR gene-fold change HIF-1α [4, 18]: 1.48 fold
- IC50 ([5]; Homo sapiens, LN-229, 72 h): 108 µM
- IC50 ([5]; 72 hrs): ~100 µM
- IC50 ([6]; Homo sapiens, T98, 72 h): 438 µM
- IC50 ([6]; 72 hrs): 447 µM
- IC50 [7]: 774 µM
- IC50 ([8]; G55 (high) passage): 94.3 µM
- IC50 ([8]; G55 (low) passage): 567 µM
- IC50 [9]: 448 µM
- RT-PCR gene-fold change MGMT ([11]; LN18 cells (TMZ-resistant), UT 1.06): 0.77 fold
- RT-PCR gene-fold change MGMT [11, 17]: 1.07 fold
- RT-PCR gene-fold change MGMT [11, 18]: 1.32 fold
- RT-PCR gene-fold change MPG ([12]; G55 cells (TMZ-resistant), UT 1.06): 2.53 fold
- RT-PCR gene-fold change MPG ([12]; LN18 cells (TMZ-resistant), UT 1.00): 2.95 fold
- RT-PCR gene-fold change MPG ([12]; LN229 cells (TMZ-sensitive), UT 1.10): 1.22 fold
- RT-PCR gene-fold change MPG ([12]; T98 cells (TMZ-resistant), UT 1.10): 1.22 fold
- RT-PCR gene-fold change MPG ([12]; U138 cells (TMZ-resistant), UT 1.13): 7.14 fold
- RT-PCR gene-fold change MPG ([12]; U251 cells (TMZ-sensitive), UT 1.10): 1.11 fold
- ELISA protein level HIF-1α ([13]; G55 cells, UT 0.14): 1.08 ng/mg cell lysate
- ELISA protein level HIF-1α ([13]; LN18 cells, UT 0 76): 0.83 ng/mg cell lysate
- ELISA protein level HIF-1α ([13]; LN229 cells, UT 0.68): 0.74 ng/mg cell lysate
- ELISA protein level HIF-1α ([13]; T98 cells, UT 0.42): 0.77 ng/mg cell lysate
- ELISA protein level HIF-1α ([13]; U138 cells, UT 0.40): 0.84 ng/mg cell lysate
- ELISA protein level HIF-1α ([13]; U251 cells, UT 0.30): 1.41 ng/mg cell lysate
- ELISA protein level MGMT ([14]; G55 cells, UT 0.37): 1.19 ng/mg cell lysate
- ELISA protein level MGMT ([14]; LN18 cells, UT 1.23): 1.28 ng/mg cell lysate
- ELISA protein level MGMT ([14]; LN229 cells, UT 0.67): 0.75 ng/mg cell lysate
- ELISA protein level MGMT ([14]; T98 cells, UT 0.62): 1.76 ng/mg cell lysate
- ELISA protein level MGMT ([14]; U138 cells, UT 0.77): 0.98 ng/mg cell lysate
- ELISA protein level MGMT ([14]; U251 cells, UT 0.92): 1.48 ng/mg cell lysate
- ELISA protein level MPG ([15]; G55 cells, UT 1.15): 1.50 ng/mg cell lysate
- ELISA protein level MPG ([15]; LN18 cells, UT 2.18): 2.27 ng/mg cell lysate
- ELISA protein level MPG ([15]; LN229 cells, UT 2.34): 1.93 ng/mg cell lysate
- ELISA protein level MPG ([15]; T98 cells, UT 3.04): 3.82 ng/mg cell lysate
- ELISA protein level MPG ([15]; U138 cells, UT 1.30): 1.50 ng/mg cell lysate
- ELISA protein level MPG ([15]; U251 cells, UT 2.70): 4.99 ng/mg cell lysate
- incidence of severe nausea and vomiting (each) [16]: around 4%

Compound: CC[C@]1(O)C[C@H]2CN(CCc3c([nH]c4ccccc34)[C@@](C(=O)OC)(c3cc4c(cc3OC)N(C=O)[C@H]3[C@@](O)(C(=O)OC)[C@H](OC(C)=O)[C@]5(CC)C=CCN6CC[C@]43[C@@H]65)C2)C1 [Vincristine, vincaleukoblastine, a 22-oxo-, sulfate (1:1) (salt)]
- crossing of the blood brain barrier [1]: does not appear to cross the blood brain barrier

— patent US11660280B2, “Treatment of drug resistant gliomas” (OKLAHOMA MEDICAL RESEARCH FOUNDATION, priority 2017, dated 2023)
